System: DU145 cells
Assay: Method of the invention: soft agar colony formation assay with WST-1, DU145
Assay type: cell-based, human
Text: The […] compounds used may be able to function as ideal antitumor agents that have PCA-1 inhibitory effects, fewer (and less severe) side effects (cytotoxicity), and high tumor-shrinking effects.

**Q.** For `CC(=O)O[C@H]1C(=O)[C@@]2(C)[C@H]([C@H](OC(=O)c3ccccc3)[C@]3(O)C[C@H](OC(=O)[C@H](O)[C@@H](NC(=O)c4ccccc4)c4ccccc4)C(C)=C1C3(C)C)[C@]1(OC(C)=O)CO[C@@H]1C[C@@H]2O` [Paclitaxel], which “cell viability (%)” value (DU145 10,000 cells/well, culture 1 week, concentrations of FIG. 2) is on record?
**A.** lowered by Paclitaxel as an anticancer agent in a concentration-dependent manner

**Q.** What about the “OD value (OD405) versus number of seeded cells” value (medium containing 100 μmol of Paclitaxel, culture 7 days, FIG. 1) of the same compound?
**A.** the OD value was low, and it was not correlated with the number of cells
